The source of these data is patent US20070248701A1, “METHODS AND FORMULATIONS FOR INHIBITING NATURALLY OCCURRING PHOSPHODIESTERASE” (priority 2003, published 2007).

SMILES strings stand for the structures. Where two headings read alike, the source gives them in different places.

In assay [1] the target is Phosphodiesterase PDE4. The note with it: reference compound, historical value; cited from earlier work.
Assay [2] deals with T1, Phosphodiesterase PDE2 (Homo sapiens, UniProt O00408). The note with it: reference compound, historical value; cited from earlier work.
For assay [3], the target named is Phosphodiesterase PDE4. Description: Phosphodiesterase PDE4 enzyme assay. It counts as biochemical, human. The settings on record: reference compound tested concurrently, batch 70680; read-out: Concurrent IC50.
Assay [4] deals with T2, Phosphodiesterase PDE3 (Homo sapiens, UniProt Q14432). The note with it: reference compound, historical value; cited from earlier work.
Assay [5] deals with Phosphodiesterase PDE1. The assay is described as follows: Phosphodiesterase PDE1 enzyme assay. It counts as biochemical, bovine. The settings on record: reference compound tested concurrently, batch 70431; read-out: Concurrent IC50.
For assay [6], the target named is T3, Phosphodiesterase PDE5 (Homo sapiens, UniProt O76074). Description: Phosphodiesterase PDE5 enzyme assay. The class given is biochemical. The note with it: reference compound tested concurrently, batch 70681; read-out: Concurrent IC50.
Assay [7] has as its target T2, Phosphodiesterase PDE3. The assay is described as follows: Phosphodiesterase PDE3 enzyme assay. The class given is biochemical. The note with it: reference compound tested concurrently, batch 70679; read-out: Concurrent IC50.
Assay [8] addresses T1, Phosphodiesterase PDE2. The assay is described as follows: Phosphodiesterase PDE2 enzyme assay. The note with it: reference compound tested concurrently, batch 70678; read-out: Concurrent IC50. The class given is biochemical.
Assay [9] deals with Phosphodiesterase PDE1. The note with it: reference compound, historical value; cited from earlier work.
Assay [10] deals with T3, Phosphodiesterase PDE5. The note with it: reference compound, historical value; cited from earlier work.
Assay [11] concerns the target T4, Phosphodiesterase PDE6 (Bos taurus, UniProt P11541+P23439).
T4 sequence (P11541 1-859): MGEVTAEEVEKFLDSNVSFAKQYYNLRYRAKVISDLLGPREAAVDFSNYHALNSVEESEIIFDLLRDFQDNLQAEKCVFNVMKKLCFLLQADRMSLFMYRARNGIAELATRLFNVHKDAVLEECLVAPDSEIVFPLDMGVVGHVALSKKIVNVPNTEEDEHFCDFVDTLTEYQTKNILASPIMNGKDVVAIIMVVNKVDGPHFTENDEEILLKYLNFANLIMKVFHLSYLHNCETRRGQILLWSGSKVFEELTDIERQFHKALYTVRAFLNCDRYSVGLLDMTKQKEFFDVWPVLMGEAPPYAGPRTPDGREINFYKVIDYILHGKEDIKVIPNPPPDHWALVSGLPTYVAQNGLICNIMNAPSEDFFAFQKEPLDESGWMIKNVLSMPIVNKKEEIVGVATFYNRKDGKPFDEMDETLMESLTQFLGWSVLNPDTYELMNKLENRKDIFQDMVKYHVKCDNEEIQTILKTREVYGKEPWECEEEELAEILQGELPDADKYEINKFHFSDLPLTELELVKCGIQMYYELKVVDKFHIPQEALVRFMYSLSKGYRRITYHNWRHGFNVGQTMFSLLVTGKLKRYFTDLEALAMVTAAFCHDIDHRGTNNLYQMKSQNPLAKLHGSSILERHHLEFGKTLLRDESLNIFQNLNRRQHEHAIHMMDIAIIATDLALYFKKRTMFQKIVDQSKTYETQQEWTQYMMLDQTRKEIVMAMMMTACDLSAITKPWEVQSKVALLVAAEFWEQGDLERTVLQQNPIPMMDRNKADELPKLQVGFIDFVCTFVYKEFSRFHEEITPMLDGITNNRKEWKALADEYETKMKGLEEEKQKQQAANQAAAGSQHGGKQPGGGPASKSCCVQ
T4 sequence (P23439 1-853): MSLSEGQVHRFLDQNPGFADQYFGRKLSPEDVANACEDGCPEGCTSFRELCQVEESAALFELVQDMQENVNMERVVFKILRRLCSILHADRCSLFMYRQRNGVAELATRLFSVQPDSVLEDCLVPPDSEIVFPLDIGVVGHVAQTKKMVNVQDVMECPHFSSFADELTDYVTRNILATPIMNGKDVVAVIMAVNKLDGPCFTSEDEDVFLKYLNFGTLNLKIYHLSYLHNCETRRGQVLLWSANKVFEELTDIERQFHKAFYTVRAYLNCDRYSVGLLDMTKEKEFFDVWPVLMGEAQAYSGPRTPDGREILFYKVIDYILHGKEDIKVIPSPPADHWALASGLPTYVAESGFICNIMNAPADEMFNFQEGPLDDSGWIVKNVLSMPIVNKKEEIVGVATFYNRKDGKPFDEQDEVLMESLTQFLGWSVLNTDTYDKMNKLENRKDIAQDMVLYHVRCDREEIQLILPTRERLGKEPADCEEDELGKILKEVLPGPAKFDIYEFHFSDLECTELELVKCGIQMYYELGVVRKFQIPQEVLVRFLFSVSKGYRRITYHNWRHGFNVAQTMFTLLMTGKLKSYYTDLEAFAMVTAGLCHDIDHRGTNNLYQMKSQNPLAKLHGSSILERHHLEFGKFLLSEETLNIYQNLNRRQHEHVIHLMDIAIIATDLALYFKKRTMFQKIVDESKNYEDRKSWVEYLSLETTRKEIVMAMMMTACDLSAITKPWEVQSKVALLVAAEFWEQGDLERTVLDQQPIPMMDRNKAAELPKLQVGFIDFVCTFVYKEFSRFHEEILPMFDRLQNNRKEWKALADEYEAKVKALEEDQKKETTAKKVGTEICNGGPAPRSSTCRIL
The note with it: reference compound, historical value; cited from earlier work.

Assay [12] has as its target T4, Phosphodiesterase PDE6. The assay is described as follows: Phosphodiesterase PDE6 enzyme assay. It counts as biochemical, bovine. The note with it: reference compound tested concurrently, batch 70682; read-out: Concurrent IC50. Here is the method: The test material (TNPJCon) was tested using an Enzyme assays that involve PDE enzymes from both bovine and human origin known as PDE1, PDE2, PDE3, PDE4, PDE6. All of the enzyme assays were run on a 1% concentration of TNPJCon. Please note that the IC50 was not determined.

T2 sequence (Q14432 whole entry): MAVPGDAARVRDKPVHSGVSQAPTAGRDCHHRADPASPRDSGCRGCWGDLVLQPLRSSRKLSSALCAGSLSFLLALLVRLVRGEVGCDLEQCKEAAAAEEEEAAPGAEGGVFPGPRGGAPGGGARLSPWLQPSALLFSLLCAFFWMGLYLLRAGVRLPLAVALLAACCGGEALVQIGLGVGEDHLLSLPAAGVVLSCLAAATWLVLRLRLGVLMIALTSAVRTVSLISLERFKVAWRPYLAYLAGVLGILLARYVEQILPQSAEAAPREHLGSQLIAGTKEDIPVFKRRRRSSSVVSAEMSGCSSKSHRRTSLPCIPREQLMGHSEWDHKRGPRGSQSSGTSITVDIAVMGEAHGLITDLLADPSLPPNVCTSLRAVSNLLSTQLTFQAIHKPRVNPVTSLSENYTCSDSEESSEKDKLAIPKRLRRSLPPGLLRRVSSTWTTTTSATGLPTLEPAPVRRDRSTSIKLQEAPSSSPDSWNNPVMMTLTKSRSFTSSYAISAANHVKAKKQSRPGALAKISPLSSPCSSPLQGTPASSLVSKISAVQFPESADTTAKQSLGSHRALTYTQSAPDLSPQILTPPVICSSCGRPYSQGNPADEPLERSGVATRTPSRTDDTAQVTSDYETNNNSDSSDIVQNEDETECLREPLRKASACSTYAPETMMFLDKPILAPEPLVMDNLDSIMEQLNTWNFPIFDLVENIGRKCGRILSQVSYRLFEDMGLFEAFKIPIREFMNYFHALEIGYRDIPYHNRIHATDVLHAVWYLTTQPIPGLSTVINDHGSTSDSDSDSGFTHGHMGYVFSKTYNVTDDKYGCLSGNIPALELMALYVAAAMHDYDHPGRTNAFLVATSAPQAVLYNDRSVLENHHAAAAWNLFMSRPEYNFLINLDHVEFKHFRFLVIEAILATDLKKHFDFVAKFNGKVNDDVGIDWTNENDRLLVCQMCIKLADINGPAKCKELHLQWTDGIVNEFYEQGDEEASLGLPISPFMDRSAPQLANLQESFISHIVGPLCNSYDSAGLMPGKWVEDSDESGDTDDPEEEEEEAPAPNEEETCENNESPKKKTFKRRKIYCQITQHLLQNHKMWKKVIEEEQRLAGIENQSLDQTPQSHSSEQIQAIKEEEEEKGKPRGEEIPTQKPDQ
T1 sequence (O00408 whole entry): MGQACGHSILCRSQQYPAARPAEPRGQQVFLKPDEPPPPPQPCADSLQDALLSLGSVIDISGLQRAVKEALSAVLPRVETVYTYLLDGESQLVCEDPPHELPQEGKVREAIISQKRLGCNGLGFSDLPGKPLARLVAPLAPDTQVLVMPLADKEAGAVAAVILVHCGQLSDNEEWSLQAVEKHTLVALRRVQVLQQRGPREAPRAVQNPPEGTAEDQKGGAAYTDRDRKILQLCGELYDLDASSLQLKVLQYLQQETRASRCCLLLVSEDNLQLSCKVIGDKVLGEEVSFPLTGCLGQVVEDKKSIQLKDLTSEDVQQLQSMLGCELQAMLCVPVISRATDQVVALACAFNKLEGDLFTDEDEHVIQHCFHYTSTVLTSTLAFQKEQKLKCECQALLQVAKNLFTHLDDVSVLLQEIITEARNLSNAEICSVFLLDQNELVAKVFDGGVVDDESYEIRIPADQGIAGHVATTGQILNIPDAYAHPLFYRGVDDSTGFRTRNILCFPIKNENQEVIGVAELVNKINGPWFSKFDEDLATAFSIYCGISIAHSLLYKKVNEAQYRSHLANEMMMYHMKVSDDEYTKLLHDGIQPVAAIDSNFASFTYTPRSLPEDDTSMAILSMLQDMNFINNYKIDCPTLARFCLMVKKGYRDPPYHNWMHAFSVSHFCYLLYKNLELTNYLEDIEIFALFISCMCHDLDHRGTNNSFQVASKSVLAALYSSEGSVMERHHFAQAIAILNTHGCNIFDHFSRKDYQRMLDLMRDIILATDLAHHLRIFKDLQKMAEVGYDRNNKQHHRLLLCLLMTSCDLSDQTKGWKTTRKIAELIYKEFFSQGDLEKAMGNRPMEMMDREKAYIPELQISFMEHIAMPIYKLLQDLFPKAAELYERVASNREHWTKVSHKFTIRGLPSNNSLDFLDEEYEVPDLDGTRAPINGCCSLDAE

Regarding `CC(C)Cn1c(=O)n(C)c(=O)c2[nH]cnc21` [IBMX], the half-maximal inhibitory concentration (IC50) at Phosphodiesterase PDE4 [1] is 6.5 µM; on Phosphodiesterase PDE2 [2], 30 µM; on Phosphodiesterase PDE4 [3] it was 30.8 µM; on Phosphodiesterase PDE3 [4] it was 4.6 µM; at Phosphodiesterase PDE1 [5] it was 3.76 µM; at Phosphodiesterase PDE5 [6], 65.4 µM. For the same compound, the half-maximal inhibitory concentration (IC50) at Phosphodiesterase PDE3 [7] is 20.8 µM; at Phosphodiesterase PDE2 [8], 81 µM; on Phosphodiesterase PDE1 [9], 1.1 µM; on Phosphodiesterase PDE5 [10], 63 µM.

As for `CCCOc1ccccc1-c1nc2nn[nH]c2c(=O)[nH]1` [Zaprinast], the IC50 on Phosphodiesterase PDE6 [11] was 0.22 µM; at Phosphodiesterase PDE6 [12], 0.281 µM.
